# Data from patent publication US12343326B2, “Psychoactive medicines and their use for treating psychiatric and neurological conditions and disorders” (Transcend Therapeutics, Inc., priority 2021, dated 2025).
# Like-named read-outs stand apart in the source and are kept apart here.
# Columns and labels:
# Test in all cases: β-arrestin based GPCR screen (PathHunter / GPCRmax), agonist mode
# Assay type in all cases: cell-based
# Set-up in all cases: host or cells: PathHunter cell lines
# [1] = biological target: 168 GPCRs (Homo sapiens, UniProt Q9H244)
# Chain of 168 GPCRs (Homo sapiens, UniProt Q9H244) (Q9H244 whole entry): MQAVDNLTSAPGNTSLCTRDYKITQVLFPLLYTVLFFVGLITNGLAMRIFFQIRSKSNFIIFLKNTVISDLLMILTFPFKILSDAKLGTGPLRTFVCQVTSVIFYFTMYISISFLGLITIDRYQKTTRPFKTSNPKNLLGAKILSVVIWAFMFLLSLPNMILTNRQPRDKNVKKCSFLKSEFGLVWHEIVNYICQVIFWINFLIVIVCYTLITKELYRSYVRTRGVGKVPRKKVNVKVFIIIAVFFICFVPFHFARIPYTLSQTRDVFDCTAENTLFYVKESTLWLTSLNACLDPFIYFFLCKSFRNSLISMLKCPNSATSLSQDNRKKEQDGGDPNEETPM
# Experimental: (§1) For agonist determination, cells were incubated with sample to induce response. […] Vehicle concentration was 1%.
# [2] = biological target: 168 GPCRs (Homo sapiens, UniProt P21728)
# Chain of 168 GPCRs (Homo sapiens, UniProt P21728) (P21728 whole entry): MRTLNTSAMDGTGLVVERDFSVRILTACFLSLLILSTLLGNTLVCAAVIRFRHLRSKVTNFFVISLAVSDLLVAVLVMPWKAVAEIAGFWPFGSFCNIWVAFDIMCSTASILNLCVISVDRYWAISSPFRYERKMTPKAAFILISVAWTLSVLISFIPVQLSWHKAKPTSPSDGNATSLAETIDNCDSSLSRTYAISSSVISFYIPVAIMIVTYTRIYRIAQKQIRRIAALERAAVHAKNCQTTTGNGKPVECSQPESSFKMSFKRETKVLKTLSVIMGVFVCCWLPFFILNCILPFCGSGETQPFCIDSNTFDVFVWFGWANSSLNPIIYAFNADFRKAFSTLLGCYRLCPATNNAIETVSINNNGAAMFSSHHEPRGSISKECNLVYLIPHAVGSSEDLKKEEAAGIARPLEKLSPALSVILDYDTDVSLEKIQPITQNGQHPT
# Experimental: as §1
# [3] = biological target: 168 GPCRs (Homo sapiens, UniProt Q9NSD7)
# Chain of 168 GPCRs (Homo sapiens, UniProt Q9NSD7) (Q9NSD7 whole entry): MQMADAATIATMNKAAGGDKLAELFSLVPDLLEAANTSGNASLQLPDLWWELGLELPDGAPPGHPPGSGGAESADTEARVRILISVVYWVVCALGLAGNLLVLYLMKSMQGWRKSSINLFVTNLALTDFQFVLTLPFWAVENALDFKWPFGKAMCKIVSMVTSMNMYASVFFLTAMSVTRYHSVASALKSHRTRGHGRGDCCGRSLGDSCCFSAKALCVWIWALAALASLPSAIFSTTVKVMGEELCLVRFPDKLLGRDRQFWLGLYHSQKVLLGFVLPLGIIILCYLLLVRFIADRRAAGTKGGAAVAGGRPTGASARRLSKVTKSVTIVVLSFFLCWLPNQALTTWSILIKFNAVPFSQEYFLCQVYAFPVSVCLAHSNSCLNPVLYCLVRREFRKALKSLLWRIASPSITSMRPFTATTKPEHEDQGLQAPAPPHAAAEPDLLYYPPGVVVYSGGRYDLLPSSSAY
# Experimental: as §1
# [4] = biological target: T1, 168 GPCRs (Homo sapiens, UniProt P24530); conditions: EDNRB
# T1 sequence (P24530 27-442): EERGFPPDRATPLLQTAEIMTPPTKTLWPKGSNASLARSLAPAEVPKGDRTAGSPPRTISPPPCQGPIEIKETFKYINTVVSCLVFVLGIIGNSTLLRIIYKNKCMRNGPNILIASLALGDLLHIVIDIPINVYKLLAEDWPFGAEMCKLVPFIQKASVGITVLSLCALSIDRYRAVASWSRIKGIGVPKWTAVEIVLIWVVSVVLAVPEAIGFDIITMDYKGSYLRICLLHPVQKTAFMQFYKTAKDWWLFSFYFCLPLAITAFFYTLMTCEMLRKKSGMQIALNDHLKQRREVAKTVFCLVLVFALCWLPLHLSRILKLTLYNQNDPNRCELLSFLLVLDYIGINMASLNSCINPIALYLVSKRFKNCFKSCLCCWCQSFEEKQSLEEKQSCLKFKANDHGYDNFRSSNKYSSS
# Experimental: as §1
# [5] = biological target: 168 GPCRs (Homo sapiens, UniProt P41145)
# Chain of 168 GPCRs (Homo sapiens, UniProt P41145) (P41145 whole entry): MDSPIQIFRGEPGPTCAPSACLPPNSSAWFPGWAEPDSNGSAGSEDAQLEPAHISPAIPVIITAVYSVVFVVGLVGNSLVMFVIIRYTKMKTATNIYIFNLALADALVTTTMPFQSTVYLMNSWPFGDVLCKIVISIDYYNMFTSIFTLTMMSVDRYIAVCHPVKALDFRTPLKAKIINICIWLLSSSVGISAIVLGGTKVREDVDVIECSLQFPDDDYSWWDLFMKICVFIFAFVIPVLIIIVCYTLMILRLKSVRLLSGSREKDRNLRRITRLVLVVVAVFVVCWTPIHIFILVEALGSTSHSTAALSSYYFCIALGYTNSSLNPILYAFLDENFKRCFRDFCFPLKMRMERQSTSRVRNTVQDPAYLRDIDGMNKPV
# Experimental: as §1
# [6] = biological target: 168 GPCRs (Homo sapiens, UniProt Q8NFJ6)
# Experimental: as §1
# [7] = biological target: 168 GPCRs (Homo sapiens, UniProt P25105); conditions: PTAFR
# Chain of 168 GPCRs (Homo sapiens, UniProt P25105) (P25105 whole entry): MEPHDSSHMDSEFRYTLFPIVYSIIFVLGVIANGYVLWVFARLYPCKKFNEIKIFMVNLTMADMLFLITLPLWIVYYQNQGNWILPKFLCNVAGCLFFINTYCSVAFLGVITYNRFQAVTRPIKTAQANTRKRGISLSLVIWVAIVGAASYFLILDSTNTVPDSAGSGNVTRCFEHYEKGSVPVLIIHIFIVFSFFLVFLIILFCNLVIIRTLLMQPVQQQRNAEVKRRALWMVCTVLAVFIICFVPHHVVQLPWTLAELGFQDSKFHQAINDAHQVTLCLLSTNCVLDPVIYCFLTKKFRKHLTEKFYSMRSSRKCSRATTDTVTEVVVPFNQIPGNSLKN
# Experimental: as §1
# [8] = biological target: T2, 168 GPCRs (Homo sapiens, UniProt Q9Y5Y4)
# T2 sequence (Q9Y5Y4 1-395): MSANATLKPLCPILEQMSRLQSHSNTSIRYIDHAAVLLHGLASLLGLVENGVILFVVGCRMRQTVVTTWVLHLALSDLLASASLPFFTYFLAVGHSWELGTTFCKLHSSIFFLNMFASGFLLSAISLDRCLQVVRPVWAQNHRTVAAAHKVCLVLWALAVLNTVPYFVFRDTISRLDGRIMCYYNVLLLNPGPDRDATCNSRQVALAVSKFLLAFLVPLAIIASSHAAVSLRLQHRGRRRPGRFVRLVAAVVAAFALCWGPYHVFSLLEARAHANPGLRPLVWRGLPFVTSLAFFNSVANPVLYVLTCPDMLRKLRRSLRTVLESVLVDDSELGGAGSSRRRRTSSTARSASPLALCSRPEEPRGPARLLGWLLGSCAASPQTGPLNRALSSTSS
# Experimental: as §1
# [9] = biological target: 168 GPCRs (Homo sapiens, UniProt P41146)
# Chain of 168 GPCRs (Homo sapiens, UniProt P41146) (P41146 whole entry): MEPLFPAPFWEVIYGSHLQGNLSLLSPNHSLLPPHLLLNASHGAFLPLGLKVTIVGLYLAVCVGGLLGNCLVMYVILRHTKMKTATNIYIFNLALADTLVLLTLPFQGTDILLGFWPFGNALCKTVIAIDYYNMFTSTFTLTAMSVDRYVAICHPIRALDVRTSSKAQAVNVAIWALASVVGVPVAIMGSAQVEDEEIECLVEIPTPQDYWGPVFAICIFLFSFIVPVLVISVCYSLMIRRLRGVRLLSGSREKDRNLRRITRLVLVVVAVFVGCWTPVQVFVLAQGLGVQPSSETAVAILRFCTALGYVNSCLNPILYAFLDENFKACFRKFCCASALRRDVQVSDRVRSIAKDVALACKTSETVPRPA
# Experimental: as §1
# [10] = biological target: 168 GPCRs (Homo sapiens, UniProt Q9UKP6)
# Chain of 168 GPCRs (Homo sapiens, UniProt Q9UKP6) (Q9UKP6 whole entry): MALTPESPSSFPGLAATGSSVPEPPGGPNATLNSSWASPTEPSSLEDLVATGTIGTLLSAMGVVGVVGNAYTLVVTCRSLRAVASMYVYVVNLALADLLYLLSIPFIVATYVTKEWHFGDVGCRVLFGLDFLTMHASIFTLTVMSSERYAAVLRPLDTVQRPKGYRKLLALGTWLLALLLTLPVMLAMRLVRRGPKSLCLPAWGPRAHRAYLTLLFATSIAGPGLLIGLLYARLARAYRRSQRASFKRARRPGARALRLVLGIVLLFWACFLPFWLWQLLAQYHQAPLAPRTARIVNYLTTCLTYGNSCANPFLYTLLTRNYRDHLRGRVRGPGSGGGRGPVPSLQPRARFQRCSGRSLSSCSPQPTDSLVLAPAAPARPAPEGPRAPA
# Experimental: as §1
# [11] = biological target: 168 GPCRs (Homo sapiens, UniProt Q16602); conditions: Agonist
# Chain of 168 GPCRs (Homo sapiens, UniProt Q16602) (Q16602 23-461): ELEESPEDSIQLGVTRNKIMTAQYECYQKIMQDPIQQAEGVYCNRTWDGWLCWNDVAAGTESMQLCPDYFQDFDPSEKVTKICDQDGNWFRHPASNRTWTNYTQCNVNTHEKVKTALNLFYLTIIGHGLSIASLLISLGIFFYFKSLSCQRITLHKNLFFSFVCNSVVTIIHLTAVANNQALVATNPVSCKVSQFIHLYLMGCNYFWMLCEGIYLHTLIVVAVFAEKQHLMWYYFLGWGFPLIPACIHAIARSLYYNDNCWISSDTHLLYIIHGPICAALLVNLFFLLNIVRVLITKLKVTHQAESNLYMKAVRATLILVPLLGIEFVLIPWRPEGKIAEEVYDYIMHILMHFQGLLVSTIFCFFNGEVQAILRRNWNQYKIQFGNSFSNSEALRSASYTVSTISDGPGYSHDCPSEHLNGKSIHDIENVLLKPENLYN
# Experimental: as §1
# [12] = biological target: 168 GPCRs (Homo sapiens, UniProt O95838); conditions: GLP2R
# Chain of 168 GPCRs (Homo sapiens, UniProt O95838) (O95838 whole entry): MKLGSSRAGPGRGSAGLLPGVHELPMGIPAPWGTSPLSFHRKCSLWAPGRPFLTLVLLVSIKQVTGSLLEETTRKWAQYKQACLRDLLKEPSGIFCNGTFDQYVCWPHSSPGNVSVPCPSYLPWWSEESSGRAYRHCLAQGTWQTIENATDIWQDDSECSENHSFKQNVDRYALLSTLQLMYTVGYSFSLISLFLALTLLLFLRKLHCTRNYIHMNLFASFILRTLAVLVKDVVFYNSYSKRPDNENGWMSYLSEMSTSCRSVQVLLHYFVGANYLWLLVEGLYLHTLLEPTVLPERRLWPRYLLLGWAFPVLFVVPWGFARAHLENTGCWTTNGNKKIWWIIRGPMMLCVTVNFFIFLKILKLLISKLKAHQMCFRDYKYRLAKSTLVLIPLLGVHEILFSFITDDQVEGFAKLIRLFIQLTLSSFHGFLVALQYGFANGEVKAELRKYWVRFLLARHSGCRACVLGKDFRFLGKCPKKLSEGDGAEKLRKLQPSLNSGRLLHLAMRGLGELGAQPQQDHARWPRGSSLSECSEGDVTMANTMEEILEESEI
# Experimental: as §1
# [13] = biological target: 168 GPCRs (Homo sapiens, UniProt Q9H1C0)
# Experimental: as §1
# [14] = biological target: 168 GPCRs (Homo sapiens, UniProt P07550); conditions: ADRB2, Agonist
# Chain of 168 GPCRs (Homo sapiens, UniProt P07550) (P07550 whole entry): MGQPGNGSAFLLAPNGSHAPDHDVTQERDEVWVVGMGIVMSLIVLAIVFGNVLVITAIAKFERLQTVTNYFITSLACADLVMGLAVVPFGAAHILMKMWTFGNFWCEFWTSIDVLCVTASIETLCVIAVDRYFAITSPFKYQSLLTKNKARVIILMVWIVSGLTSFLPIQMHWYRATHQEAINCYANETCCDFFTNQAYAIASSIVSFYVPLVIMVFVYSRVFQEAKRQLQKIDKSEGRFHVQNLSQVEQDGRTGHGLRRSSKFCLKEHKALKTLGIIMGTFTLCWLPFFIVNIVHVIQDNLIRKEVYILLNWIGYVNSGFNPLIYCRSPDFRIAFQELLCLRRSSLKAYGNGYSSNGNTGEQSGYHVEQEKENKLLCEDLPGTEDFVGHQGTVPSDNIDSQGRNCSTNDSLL
# Experimental: as §1
# [15] = biological target: 168 GPCRs (Homo sapiens, UniProt P25024)
# Experimental: as §1
# [16] = biological target: 168 GPCRs (Homo sapiens, UniProt P21918)
# Chain of 168 GPCRs (Homo sapiens, UniProt P21918) (P21918 whole entry): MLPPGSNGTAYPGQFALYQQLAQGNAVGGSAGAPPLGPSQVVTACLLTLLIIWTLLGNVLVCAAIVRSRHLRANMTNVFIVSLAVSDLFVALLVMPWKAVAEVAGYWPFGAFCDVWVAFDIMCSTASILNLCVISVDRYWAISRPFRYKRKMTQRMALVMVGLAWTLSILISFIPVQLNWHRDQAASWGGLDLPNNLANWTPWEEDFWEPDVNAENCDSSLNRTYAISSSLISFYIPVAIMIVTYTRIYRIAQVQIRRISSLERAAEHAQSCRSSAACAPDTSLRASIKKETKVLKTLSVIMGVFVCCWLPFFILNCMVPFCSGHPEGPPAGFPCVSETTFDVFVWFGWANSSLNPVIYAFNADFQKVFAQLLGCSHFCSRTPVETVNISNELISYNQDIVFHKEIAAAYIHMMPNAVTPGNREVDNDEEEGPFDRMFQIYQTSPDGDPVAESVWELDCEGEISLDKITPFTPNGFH
# Experimental: as §1
structure (smiles),measurement,setting,value
"CNC(C)C(=O)c1ccc2c(c1)OCO2 (stereo not drawn) [methylone, 3,4-methylenedioxy-N-methylcathinone]",activity at 10 µM,"[1]; P2RY12, Agonist mode, 10 uM",-2.5%
same,activity at 1 µM,"[1]; P2RY12, Agonist, 1 uM",-1.5%
same,activity at 10 µM,"[2]; DRD1, Agonist mode, 10 uM",-1.6%
same,activity at 1 µM,"[2]; DRD1, Agonist, 1 uM",-1.6%
same,activity at 10 µM,"[3]; RXFP3, Agonist mode, 10 uM",-8.7%
same,activity at 1 µM,"[3]; RXFP3, Agonist, 1 uM",-7.6%
same,activity at 10 µM,"[4]; Agonist mode, 10 uM",-0.1%
same,activity at 1 µM,"[4]; Agonist, 1 uM",0.7%
same,activity at 10 µM,"[5]; OPRK1, Agonist mode, 10 uM",-4.1%
same,activity at 1 µM,"[5]; OPRK1, Agonist, 1 uM",-6.3%
same,activity at 10 µM,"[6]; PROKR2, Agonist mode, 10 uM",-0.6%
same,activity at 1 µM,"[6]; PROKR2, Agonist, 1 uM",-0.6%
same,activity at 10 µM,"[7]; Agonist mode, 10 uM",-2.6%
same,activity at 1 µM,"[7]; Agonist, 1 uM",-1.3%
same,activity at 10 µM,"[8]; CRTH2, Agonist mode, 10 uM",-5%
same,activity at 1 µM,"[8]; CRTH2, Agonist, 1 uM",-5.7%
same,activity at 10 µM,"[9]; OPRL1, Agonist mode, 10 uM",-2.3%
same,activity at 1 µM,"[9]; OPRL1, Agonist, 1 uM",-1.6%
same,activity at 10 µM,"[10]; UTR2, Agonist mode, 10 uM",0%
same,activity at 1 µM,"[10]; UTR2, Agonist, 1 uM",0.6%
same,activity at 1 µM,"[11]; CALCRL-RAMP1, read-out: % Activity",-2.6%
same,activity at 10 µM,[11]; CALCRL-RAMP1,-0.2%
same,activity at 1 µM,[11]; CALCRL-RAMP2,0.1%
same,activity at 10 µM,[11]; CALCRL-RAMP2,2.8%
same,activity at 1 µM,"[11]; CALCRL-RAMP3, read-out: % Activity",-2.2%
same,activity at 10 µM,[11]; CALCRL-RAMP3,2.2%
same,activity at 10 µM,"[12]; Agonist mode, 10 uM",-13%
same,activity at 1 µM,"[12]; Agonist, 1 uM",-1.5%
same,activity at 10 µM,"[13]; GPR92, Agonist mode, 10 uM",-3.5%
same,activity at 1 µM,"[13]; GPR92, Agonist, 1 uM",-1.6%
same,activity at 1 µM,[14]; 1 uM,0%
same,activity at 10 µM,[14]; 10 uM,-0.2%
same,activity at 10 µM,"[15]; CXCR1, Agonist mode, 10 uM",0.1%
same,activity at 1 µM,"[15]; CXCR1, Agonist, 1 uM",-0.5%
same,activity at 10 µM,"[16]; DRD5, Agonist mode, 10 uM",-0.2%
same,activity at 1 µM,"[16]; DRD5, Agonist, 1 uM",-0.1%
